Experiments:
Experiment in all cases: relative viability (nuclei count vs DMSO), 5 days (fraction); higher = more cells survive
[1] = compound: C#Cc1cccc(Nc2ncnc3cc(OC)c(OCCCCCCC(=O)NO)cc23)c1 [CUDC-101] + CS(=O)(=O)CCNCc1ccc(-c2ccc3ncnc(Nc4ccc(OCc5cccc(F)c5)c(Cl)c4)c3c2)o1 [Lapatinib] (partner 2 µM)
Procedure, shortened: (§1)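 The day after seeding in 1536-well plates, lung cancer cell lines were treated by pin tool with a single drug, or with a fixed anchor-drug dose together with five library-drug doses (not always all listed) in √10 steps. After 5 days, a combined fix-and-stain solution (final 0.05% Triton X-100, 1% formaldehyde, 1 ug/ml Hoechst) was added. Nuclei counted on 4× images gave relative viability as treated counts over vehicle counts, reported as the median of duplicate plates.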

[2] = compound: C#Cc1cccc(Nc2ncnc3cc(OC)c(OCCCCCCC(=O)NO)cc23)c1 [CUDC-101] + COc1cc2c(Oc3ccc(NC(=O)C4(C(=O)Nc5ccc(F)cc5)CC4)cc3F)ccnc2cc1OCCCN1CCOCC1 [Foretinib] (partner 0.25 µM)
Procedure, shortened: as §1

[3] = compound: C1=CC=C2C(=C1)N=C(S2)C(C#N)C3=NC(=NC=C3)NCCC4=CN=CC=C4 + Cc1cc(Nc2cc(N3CCN(C)CC3)nc(Sc3ccc(NC(=O)C4CC4)cc3)n2)n[nH]1 [Tozasertib] (partner 0.1 µM)
Procedure, shortened: as §1

[4] = compound: C1=CC=C2C(=C1)N=C(S2)C(C#N)C3=NC(=NC=C3)NCCC4=CN=CC=C4
Procedure, shortened: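 Lung cancer cell lines were seeded into 1536-well plates, kept overnight at 37 °C and pinned with five library-drug doses (not always all listed) spaced by √10. After 5 days, nuclei were Hoechst-stained, imaged at 4× and counted with MetaXpress. Viability is treated-well nuclei over vehicle-well nuclei, taken as a median across plates. Plates needed control CV below 25% and at least one doubling.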

Row | Cell Line | relative viability ([1]; first compound 0.01 µM) | relative viability ([1]; first compound 0.03162 µM) | relative viability ([1]; first compound 0.1 µM) | relative viability ([1]; first compound 0.3162 µM) | relative viability ([1]; first compound 1 µM) | relative viability ([2]; first compound 0.01 µM) | relative viability ([2]; first compound 0.03162 µM) | relative viability ([2]; first compound 0.1 µM) | relative viability ([2]; first compound 0.3162 µM) | relative viability ([2]; first compound 1 µM) | relative viability ([3]; first compound 0.005 µM) | relative viability ([3]; first compound 0.01581 µM) | relative viability ([3]; first compound 0.05 µM) | relative viability ([3]; first compound 0.1581 µM) | relative viability ([3]; first compound 0.5 µM) | relative viability ([4]; 0.005 µM) | relative viability ([4]; 0.01581 µM) | relative viability ([4]; 0.05 µM) | relative viability ([4]; 0.1581 µM) | relative viability ([4]; 0.5 µM)
1 | NCI-H1651 | 0.869 | 0.813 | 0.884 | 0.771 | 0.325 | 0.821 | 0.741 | 1.07 | 0.82 | 0.609 | 0.618 | 0.793 | 0.518 | 0.661 | 0.457 | 0.884 | 1.02 | 1.14 | 1.07 | 0.984
2 | NCI-H2405 | 1.25 | 1.05 | 1.19 | 1.27 | 0.917 | 1.09 | 0.991 | 1.08 | 1.16 | 1.04 | 0.714 | 0.72 | 0.672 | 0.701 | 0.616 | 0.981 | 0.943 | 0.962 | 0.988 | 0.981
3 | NCI-H596 | 1.04 | 1.04 | 1.03 | 1.08 | 0.982 | 0.862 | 0.902 | 0.787 | 0.752 | 0.729 | 0.774 | 1 | 0.81 | 0.917 | 0.853 | 0.791 | 0.962 | 1.01 | 1.07 | 0.928
4 | NCI-H2009 | 0.924 | 1 | 1.07 | 0.925 | 0.87 | 1.2 | 1.18 | 1.36 | 1.28 | 1.14 | 0.683 | 0.747 | 0.65 | 0.763 | 0.629 | 0.938 | 1 | 1.04 | 1.04 | 1.02
5 | NCI-H1648 | – | – | – | – | – | – | – | – | – | – | 0.394 | 0.416 | 0.553 | 0.424 | 0.484 | 0.704 | 0.812 | 0.764 | 1.19 | 0.75
6 | NCI-H1623 | – | – | – | – | – | 0.847 | 0.821 | 0.711 | 0.911 | 0.483 | 0.55 | 0.398 | 0.395 | 0.462 | 0.351 | 0.981 | 1.01 | 0.837 | 0.96 | 0.846
7 | A549 | 0.975 | 1.01 | 0.946 | 0.821 | 0.386 | 0.985 | 1 | 0.907 | 1.02 | 0.769 | – | – | – | – | – | 0.914 | 1.03 | 0.969 | 1.05 | 0.901
8 | HCC-44 | 0.923 | 1.07 | 0.947 | 0.979 | 0.812 | – | – | – | – | – | 0.949 | – | 0.883 | 0.927 | 0.548 | 0.999 | 1.03 | 1.04 | 1.05 | 1
9 | Calu-6 | 1.08 | 1.12 | 1.09 | 0.791 | 0.658 | 0.932 | 0.857 | 0.878 | 0.823 | 0.714 | – | – | – | – | – | 0.999 | 0.983 | 0.978 | 1.12 | 0.912
10 | NCI-H1703 | 1.31 | 1.03 | 1.07 | 1.18 | 0.765 | 0.323 | – | 0.353 | 0.402 | 0.424 | – | – | – | – | – | 0.814 | 0.841 | 0.782 | 0.889 | 1.14
11 | NCI-H1299 | 0.97 | 0.917 | 0.883 | 0.973 | 0.857 | 1.08 | 1.06 | 1.13 | 1.12 | 1.04 | – | – | – | – | – | 1.06 | 1.05 | 0.95 | 1.06 | 0.974
12 | ChaGo-K-1 | – | – | – | – | – | 0.916 | 0.875 | 0.945 | 0.894 | 0.709 | – | 0.209 | 0.223 | 0.251 | 0.255 | 0.984 | 0.929 | 0.99 | 1.05 | 0.939
13 | SW 900 | – | – | – | – | – | 0.761 | 0.629 | 0.738 | 0.885 | 0.716 | 0.452 | 0.489 | 0.5 | 0.489 | 0.362 | 0.899 | 0.845 | 0.885 | 1 | 0.823
14 | NCI-H441 | – | – | – | – | – | 0.976 | 1.23 | 1.05 | 0.978 | 0.937 | – | 0.715 | 0.633 | 0.759 | 0.531 | – | 1.12 | 1 | 1.27 | 0.871
15 | NCI-H522 | – | – | – | – | – | – | – | – | – | – | 0.458 | 0.553 | 0.501 | 0.573 | 0.537 | 0.958 | 0.795 | 0.761 | 1.11 | 0.878
16 | IA-LM | 0.999 | 0.666 | 0.605 | 0.653 | 0.305 | 1.27 | 1.1 | 1.12 | 1.11 | 0.657 | – | – | – | – | – | 0.834 | 1.19 | 0.997 | 1.02 | 0.762
17 | NCI-H1792 | 0.91 | 0.883 | 0.877 | 0.913 | 0.825 | – | – | – | – | – | – | – | – | – | – | – | 0.747 | 0.924 | 1.2 | 0.693
18 | LCLC-103H | – | – | – | – | – | 0.753 | 0.854 | 0.808 | 0.751 | 0.513 | 0.49 | 0.492 | 0.525 | 0.558 | 0.478 | 0.928 | 0.952 | 0.955 | 1.07 | 0.947

From the supplement of paper PMC10307832
